Test systems include XF 498 CNS; SNB-78 CNS; DMS 273 small cell lung; LXFL 529 NSCLC; RXF-631 renal; DMS 114 small cell lung; M19-MEL melanoma; KM20L2 colon; DLD-1 colon.
Common to all, as to test: growth of human tumour cells (NCI), 48 h

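Values below derive from 48-hour exposures of cells grown in 96-well plates, with endpoints linearly interpolated between the two concentrations bracketing the appropriate inhibition level. TGI: total growth inhibition.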

In the case of `N#Cc1cc([N+](=O)[O-])ccc1NC(=O)/C(=N\NC(=O)c1ccncc1)C(c1cnc2ccc([N+](=O)[O-])cc2n1)[N+](=O)[O-]` (centres undefined), the TGI in the test on XF 498 CNS was determined as 3.17 µM; in the test with SNB-78 CNS, 21.6 µM; in the test on DMS 273 small cell lung, 6.59 µM; in the test on LXFL 529 NSCLC, 3.81 µM; in the test with RXF-631 renal, 5.13 µM; in the test with DMS 114 small cell lung, 3.1 µM. Moreover, the results for the TGI with M19-MEL melanoma and in the test on KM20L2 colon were 1.69 µM and 25.1 µM, respectively.

Consider `CCOP12(OCC)NC(=O)OC1(C(F)(F)F)c1ccccc1O2` (centres undefined), for which the TGI in the test with SNB-78 CNS, with DLD-1 colon, in the test with DMS 273 small cell lung, with LXFL 529 NSCLC, in the test with DMS 114 small cell lung and in the test on M19-MEL melanoma was over 100 µM throughout.

Consider `O=C(c1ccccc1)C(c1ccccc1)C1(O)C(=O)Nc2ccc([N+](=O)[O-])cc21` (centres undefined), for which the TGI is over 100 µM with XF 498 CNS; over 100 µM in the test on SNB-78 CNS; over 100 µM with DLD-1 colon; over 100 µM in the test with LXFL 529 NSCLC; over 100 µM in the test on RXF-631 renal; 79.3 µM in the test with DMS 114 small cell lung. Besides, the TGI was 72.2 µM in the test on M19-MEL melanoma and over 100 µM with KM20L2 colon.

As for `Cc1ccc(C(c2c(O)c3ccccc3n(-c3ccccc3)c2=O)c2c(O)c3ccccc3n(-c3ccccc3)c2=O)cc1`, the TGI in the test on XF 498 CNS, in the test on SNB-78 CNS, in the test on DLD-1 colon, in the test on DMS 273 small cell lung, in the test on LXFL 529 NSCLC and with DMS 114 small cell lung was over 100 µM throughout. The TGI with M19-MEL melanoma and in the test with KM20L2 colon was over 100 µM each time.

Take `COc1ccc(Cc2c(=O)[nH]nc3ccccc23)cc1`: the TGI in the test on XF 498 CNS, with SNB-78 CNS, in the test with DLD-1 colon, in the test on DMS 273 small cell lung, with RXF-631 renal and with DMS 114 small cell lung was over 100 µM throughout. Also, the TGI in the test with M19-MEL melanoma and with KM20L2 colon was over 100 µM each time.

`O=C(O)COc1ccc(C(=O)/C(SS/C(C(=O)c2ccc(OCC(=O)O)c(Cl)c2Cl)=C2\C=C(c3ccc(Cl)cc3)SS2)=C2/C=C(c3ccc(Cl)cc3)SS2)c(Cl)c1Cl`: the TGI was 25.5 µM with SNB-78 CNS; 24.6 µM in the test with DLD-1 colon; 32.7 µM in the test with DMS 273 small cell lung; 14.4 µM in the test with LXFL 529 NSCLC; over 100 µM in the test with RXF-631 renal; 20.6 µM with M19-MEL melanoma. In the test with KM20L2 colon, this compound had a TGI of 54.5 µM.

For the compound `Cc1nc(N2N=C(c3ccc(Cl)cc3)CCC2=O)sc1[N+](=O)[O-]`, the TGI with XF 498 CNS, with SNB-78 CNS, with DLD-1 colon, with DMS 273 small cell lung, with LXFL 529 NSCLC and in the test on DMS 114 small cell lung was over 100 µM in each case. Moreover, the TGI in the test on M19-MEL melanoma and with KM20L2 colon was over 100 µM each time.

For `Clc1ccc(CCn2cncn2)cc1`, the TGI in the test on SNB-78 CNS, with DLD-1 colon, with DMS 273 small cell lung, with LXFL 529 NSCLC, with DMS 114 small cell lung and in the test on M19-MEL melanoma was over 100 µM throughout. The compound also yielded a TGI in the test with KM20L2 colon of over 100 µM.

Take `C/C(CC(=O)Nc1cc(C)ccc1C)=N/N=C(N)N`: the TGI in the test with XF 498 CNS, with SNB-78 CNS, in the test on DLD-1 colon, in the test with DMS 273 small cell lung, in the test on LXFL 529 NSCLC and in the test with DMS 114 small cell lung was over 100 µM throughout. In addition, the TGI with M19-MEL melanoma and in the test with KM20L2 colon was over 100 µM in each case.

In the case of `CCOC(=O)C(C(=O)OCC)c1ccc([N+](=O)[O-])o1`, the TGI in the test on XF 498 CNS worked out at 31 µM; with SNB-78 CNS, 34.8 µM; with DLD-1 colon, 18.6 µM; in the test with DMS 273 small cell lung, 33.4 µM; in the test on LXFL 529 NSCLC it was 11.2 µM; in the test on M19-MEL melanoma, 33.2 µM. This compound returned a TGI in the test on KM20L2 colon of 36.8 µM.

On to `O=C1CC2(CCC3=C(O2)c2ccccc2NC(=O)C3)C(=O)c2ccccc2N1` (centres undefined), for which the TGI in the test with XF 498 CNS, in the test with SNB-78 CNS, in the test on DMS 273 small cell lung, with LXFL 529 NSCLC, with DMS 114 small cell lung and with M19-MEL melanoma was over 100 µM in each case. Further, the TGI with KM20L2 colon is over 100 µM.

Turning to `CC(=O)C1Cn2c(=O)c3cc4ccccc4cc3c(=O)n2C=C1C` (centres undefined), the TGI in the test with XF 498 CNS, in the test on SNB-78 CNS, in the test on DLD-1 colon, in the test on DMS 273 small cell lung, in the test on LXFL 529 NSCLC and in the test on RXF-631 renal was over 100 µM in each case. Besides, the TGI in the test with DMS 114 small cell lung, with M19-MEL melanoma and with KM20L2 colon was over 100 µM throughout.

With `O=C(c1nc2ccccc2[nH]c1=O)C(O)c1ccco1` (centres undefined), the TGI in the test with XF 498 CNS, in the test on SNB-78 CNS, with DMS 273 small cell lung, with LXFL 529 NSCLC, with DMS 114 small cell lung and in the test with M19-MEL melanoma was over 100 µM in each case. Further, in the test on KM20L2 colon, the TGI was over 100 µM.

Turning to `O=C1NC(=O)C(C(=O)C(=O)Nc2ccc(Cl)cc2Cl)C(=O)N1`, the TGI in the test on SNB-78 CNS, in the test on DLD-1 colon, in the test on LXFL 529 NSCLC, with RXF-631 renal, with DMS 114 small cell lung and with M19-MEL melanoma was over 100 µM each time. Also, the TGI with KM20L2 colon is over 100 µM.

`O=C(Nc1cccc(C(F)(F)F)c1)C(=O)C1NC(=S)NC1=O` (centres undefined): the TGI in the test on SNB-78 CNS, in the test on DLD-1 colon, in the test with DMS 273 small cell lung, with LXFL 529 NSCLC, with DMS 114 small cell lung and in the test on M19-MEL melanoma was over 100 µM each time. Also, the TGI in the test with KM20L2 colon is over 100 µM.

Take `C=CCN1COc2c(cc3c4c(cccc24)C(=O)O3)C1`: the TGI was 37.8 µM in the test on XF 498 CNS; 66.2 µM with DLD-1 colon; over 100 µM in the test on DMS 273 small cell lung; 35.1 µM in the test with LXFL 529 NSCLC; 35 µM in the test on DMS 114 small cell lung; 37.4 µM in the test on M19-MEL melanoma. The compound further yielded a TGI in the test on KM20L2 colon of over 100 µM.

Turning to `O=c1c2ccccc2nc2n1-c1ccccc1SC2`, the TGI in the test with XF 498 CNS was 91.3 µM; in the test with SNB-78 CNS, over 100 µM; in the test on DLD-1 colon, over 100 µM; in the test on DMS 273 small cell lung it was over 100 µM; in the test on LXFL 529 NSCLC, over 100 µM; in the test with RXF-631 renal, over 100 µM. Besides, the TGI in the test on DMS 114 small cell lung, in the test with M19-MEL melanoma and with KM20L2 colon was over 100 µM in each case.

On to `O=C1C=CC2(C=C1)CCNC1=C2C(=O)c2ccccc2C1=O`, for which the TGI in the test on XF 498 CNS, in the test with DLD-1 colon, with DMS 273 small cell lung, in the test on LXFL 529 NSCLC, in the test with RXF-631 renal and in the test with DMS 114 small cell lung was over 100 µM in each case. For the same compound, the TGI in the test with M19-MEL melanoma and in the test on KM20L2 colon was over 100 µM each time.

Regarding `N#CC1=C(c2ccccc2)C(=C2Nc3ccccc3N2)C2S/C(=C\c3ccccc3)C(=O)N2C1=N` (centres undefined), the TGI is 5.57 µM in the test on XF 498 CNS; 6.86 µM in the test with SNB-78 CNS; 12 µM with DLD-1 colon; 4.9 µM with DMS 273 small cell lung; 10.8 µM in the test with LXFL 529 NSCLC; 4.64 µM in the test with DMS 114 small cell lung. In addition, the TGI was 7.97 µM in the test with M19-MEL melanoma and 6.56 µM with KM20L2 colon.

As to `O=C1C=CC(=O)c2c1ccc1c3ccccc3n(-c3ccccc3)c21`, the TGI in the test with XF 498 CNS is 20.1 µM; in the test on SNB-78 CNS it was 53.8 µM; in the test with DLD-1 colon it was 6.99 µM; in the test on DMS 273 small cell lung, 32.1 µM; with LXFL 529 NSCLC, 10.9 µM; in the test on RXF-631 renal it was 82.2 µM. For the same compound, the TGI in the test on DMS 114 small cell lung was found to be 40.4 µM; in the test on M19-MEL melanoma, 36.1 µM; with KM20L2 colon it was 36.9 µM.

As to `NC(=O)/C(=N\NC(=O)C[n+]1ccccc1)C1NC(=O)NC1=O` (centres undefined), the TGI in the test on XF 498 CNS, with SNB-78 CNS, with DLD-1 colon, with DMS 273 small cell lung, in the test on LXFL 529 NSCLC and in the test on RXF-631 renal was over 100 µM in each case. The TGI with DMS 114 small cell lung, with M19-MEL melanoma and in the test on KM20L2 colon was over 100 µM throughout.

Turning to `COc1cc(O)c2c(c1)O[C@@H]1OCC[C@H]21`, the TGI in the test on XF 498 CNS, in the test with SNB-78 CNS, in the test with DLD-1 colon, in the test on DMS 273 small cell lung, in the test on LXFL 529 NSCLC and in the test on DMS 114 small cell lung was over 100 µM each time. In addition, the TGI in the test on KM20L2 colon is over 100 µM.

Values taken from PubChem BioAssay (NCI).
